Measured values reported in PMC10684765, “Inhibition of rat locus coeruleus neurons by prostaglandin E2 EP3 receptors: pharmacological characterization ex vivo” (Frontiers in Pharmacology, 2023).
Like-named read-outs stand apart in the source and are kept apart here.

How the values were obtained:
EP3 receptor [1] = molecular target: T1, EP3 receptor (Rattus norvegicus, UniProt P34980); assay: inhibition of LC neuron firing, single-unit extracellular recording; shifted by EP3 antagonist L-798, […]
T1 construct: gene Ptger3; native receptor in locus coeruleus neurons, brain slices
T1 sequence (P34980 1-365): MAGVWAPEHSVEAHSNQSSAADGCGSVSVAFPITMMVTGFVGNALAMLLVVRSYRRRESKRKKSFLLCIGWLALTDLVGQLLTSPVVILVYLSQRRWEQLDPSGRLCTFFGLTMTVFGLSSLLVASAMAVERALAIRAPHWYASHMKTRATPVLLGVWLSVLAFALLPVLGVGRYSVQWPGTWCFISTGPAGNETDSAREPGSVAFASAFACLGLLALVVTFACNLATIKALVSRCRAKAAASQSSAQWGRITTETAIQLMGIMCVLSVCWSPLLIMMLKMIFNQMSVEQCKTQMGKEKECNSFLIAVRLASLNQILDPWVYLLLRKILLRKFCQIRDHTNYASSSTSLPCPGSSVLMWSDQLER

EP3 receptor [2] = molecular target: T1, EP3 receptor; assay: antagonism of sulprostone concentration-effect curves, single-unit recording in rat LC slices (Schild-derived fit)

EC50 (EP3 receptor [1]; read-out: (EC50)) [µM]	Structure (SMILES)	further results
0.0507	CCCCC(C)(O)C/C=C/[C@H]1[C@H](O)CC(=O)[C@@H]1CCCCCCC(=O)O (relative stereo) [misoprostol free acid]	
	COc1ccc(Br)cc1S(=O)(=O)NC(=O)/C=C/c1ccccc1Cc1ccc2ccccc2c1 [L-798,106]	Kb (EP3 receptor [2]): 5.77 ± 0.10 pKB
	CCCCC[C@H](O)/C=C/[C@H]1[C@H](O)CC(=O)[C@@H]1C/C=C\CCCC(=O)O [prostaglandin E2]	EC50 (EP3 receptor [1]): 0.11 µM
0.0148	CS(=O)(=O)NC(=O)CCC/C=C\C[C@H]1C(=O)C[C@@H](O)[C@@H]1/C=C/[C@@H](O)COc1ccccc1 [sulprostone]	
